Test results from the supplement of paper PMC10307832.

Assays:
Experiment in all cases: relative viability (nuclei count vs DMSO), 5 days (fraction); higher = more cells survive
Gemcitabine + Luminespib = compound: Nc1ccn([C@@H]2O[C@H](CO)[C@@H](O)C2(F)F)c(=O)n1 [Gemcitabine] + CCNC(=O)c1noc(-c2cc(C(C)C)c(O)cc2O)c1-c1ccc(CN2CCOCC2)cc1 [Luminespib] (partner 0.01 µM)
How it was run: (§1)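 After 5 days of treatment, lung cancer cells in 1536-well plates were fixed and stained in a single step (final 0.05% Triton X-100, 1% formaldehyde, 1 ug/ml Hoechst) and their nuclei counted on 4× images. Treatment had been applied by pin tool the day after seeding as one drug alone or as a fixed anchor-drug dose with five library-drug doses (not always all listed) in √10 steps. Relative viability is the nuclei count of treated wells divided by that of vehicle wells, and values are medians of duplicate plates.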

Gemcitabine + Dasatinib = compound: Nc1ccn([C@@H]2O[C@H](CO)[C@@H](O)C2(F)F)c(=O)n1 [Gemcitabine] + Cc1nc(Nc2ncc(C(=O)Nc3c(C)cccc3Cl)s2)cc(N2CCN(CCO)CC2)n1 [Dasatinib] (partner 0.075 µM)
How it was run: as §1

Gemcitabine + Bortezomib = compound: Nc1ccn([C@@H]2O[C@H](CO)[C@@H](O)C2(F)F)c(=O)n1 [Gemcitabine] + CC(C)C[C@H](NC(=O)[C@H](Cc1ccccc1)NC(=O)c1cnccn1)B(O)O [Bortezomib] (partner 0.002 µM)
How it was run: as §1

Gemcitabine + Navitoclax = compound: Nc1ccn([C@@H]2O[C@H](CO)[C@@H](O)C2(F)F)c(=O)n1 [Gemcitabine] + CC1(C)CCC(c2ccc(Cl)cc2)=C(CN2CCN(c3ccc(C(=O)NS(=O)(=O)c4ccc(N[C@H](CCN5CCOCC5)CSc5ccccc5)c(S(=O)(=O)C(F)(F)F)c4)cc3)CC2)C1 [Navitoclax] (partner 0.5 µM)
How it was run: as §1

Cell Line | relative viability (Gemcitabine + Luminespib; first compound 0.001 µM) | relative viability (Gemcitabine + Luminespib; first compound 0.003162 µM) | relative viability (Gemcitabine + Luminespib; first compound 0.01 µM) | relative viability (Gemcitabine + Luminespib; first compound 0.03162 µM) | relative viability (Gemcitabine + Luminespib; first compound 0.1 µM) | relative viability (Gemcitabine + Dasatinib; first compound 0.001 µM) | relative viability (Gemcitabine + Dasatinib; first compound 0.003162 µM) | relative viability (Gemcitabine + Dasatinib; first compound 0.01 µM) | relative viability (Gemcitabine + Dasatinib; first compound 0.03162 µM) | relative viability (Gemcitabine + Dasatinib; first compound 0.1 µM) | relative viability (Gemcitabine + Bortezomib; first compound 0.001 µM) | relative viability (Gemcitabine + Bortezomib; first compound 0.003162 µM) | relative viability (Gemcitabine + Bortezomib; first compound 0.01 µM) | relative viability (Gemcitabine + Bortezomib; first compound 0.03162 µM) | relative viability (Gemcitabine + Bortezomib; first compound 0.1 µM) | relative viability (Gemcitabine + Navitoclax; first compound 0.001 µM) | relative viability (Gemcitabine + Navitoclax; first compound 0.003162 µM) | relative viability (Gemcitabine + Navitoclax; first compound 0.01 µM) | relative viability (Gemcitabine + Navitoclax; first compound 0.03162 µM) | relative viability (Gemcitabine + Navitoclax; first compound 0.1 µM)
NCI-H358 | 0.778 | 0.294 | 0.126 | 0.121 | 0.114 | 0.21 | 0.151 | 0.0931 | 0.0759 | 0.0931 | – | – | – | – | – | – | – | – | – | –
NCI-H650 | 0.753 | 0.522 | 0.185 | 0.16 | 0.155 | 0.428 | 0.329 | 0.228 | 0.149 | 0.157 | 0.847 | 0.327 | 0.201 | 0.151 | 0.175 | – | – | – | – | –
NCI-H661 | 0.905 | 0.934 | 0.694 | 0.274 | 0.209 | 1.07 | 0.814 | 0.428 | 0.176 | 0.18 | 0.838 | 0.655 | 0.491 | 0.213 | 0.209 | – | – | – | – | –
NCI-H1299 | – | – | – | – | – | – | – | – | – | – | 1.03 | 1.07 | 1 | 0.995 | 1.07 | 1.02 | 1.08 | 1.04 | 1.02 | 1.06
NCI-H1395 | 0.739 | 0.607 | 0.391 | 0.361 | 0.343 | 0.409 | 0.368 | 0.371 | 0.321 | 0.31 | – | – | – | – | – | 1.05 | 0.859 | 0.525 | 0.61 | 0.414
NCI-H1563 | 0.522 | 0.549 | 0.585 | 0.483 | 0.441 | 0.433 | 0.46 | 0.457 | 0.378 | 0.373 | 0.93 | 0.965 | 0.851 | 0.608 | 0.537 | – | – | – | – | –
NCI-H1703 | – | – | – | – | – | – | – | – | – | – | 0.306 | 0.209 | 0.144 | 0.11 | 0.111 | 0.73 | 0.178 | 0.141 | 0.118 | 0.102
NCI-H1793 | 0.17 | 0.179 | 0.15 | 0.125 | 0.137 | 0.368 | 0.388 | 0.186 | 0.12 | 0.12 | – | – | – | – | – | 0.488 | 0.474 | 0.169 | 0.216 | 0.151
NCI-H1944 | 0.73 | 0.764 | 0.758 | 0.458 | 0.183 | 0.208 | 0.209 | 0.182 | 0.153 | 0.123 | – | – | – | – | – | 1.11 | 1.01 | 0.897 | 0.692 | 0.209
NCI-H2170 | 0.564 | 0.633 | 0.575 | 0.169 | 0.151 | 0.609 | 0.673 | 0.415 | 0.114 | 0.104 | – | – | – | – | – | 0.72 | 0.52 | 0.458 | 0.183 | 0.162
SK-MES-1 | 0.748 | 0.328 | 0.166 | 0.239 | 0.153 | 0.297 | 0.171 | 0.116 | 0.119 | 0.114 | – | – | – | – | – | 0.929 | 0.723 | 0.158 | 0.0905 | 0.077
SW 900 | 0.147 | 0.187 | 0.164 | 0.161 | 0.148 | 0.526 | 0.138 | 0.0977 | 0.0689 | 0.0628 | – | – | – | – | – | – | – | – | – | –
